Results on 22 molecules are retold here after US12679839B2, “Cyclin-dependent kinase 7 (CDK7) non-covalent inhibitors” (JANSSEN PHARMACEUTICA NV, priority 2020, dated 2026).

The target of test [1] is T1, CDK7/Cyclin H/MAT-1 complex (Homo sapiens, UniProt P50613).
T1 construct: Human CDK7 (amino acids 1-346); His6 (N); TEV protease cleavage site (N); made in house; host or cells: baculovirus-SF9 insect cells
The test can be described thus: Absorbance kinetic assay (20 nM CDK7/Cyclin H/MAT-1 complex). The settings on record: for IC50: read-out: CDK7 (20 nM) pIC50 (converted). Type of test: biochemical. As for the experimental part: Human CDK7 (amino acids 1-346) containing an N-terminal His6-tag followed by a tobacco etch virus (TEV) protease cleavage site, human MAT1 (amino acids 1-309) and human cyclin H (amino acids 1-323) were co-expressed in the baculovirus-SF9 insect cell expression system to generate a trimeric complex. Cell pellets were collected 72 h post-infection and were resuspended by Dounce homogenization in 20 mM Hepes-NaOH (pH 8.0), 300 mM NaCl, 10% glycerol, 2 mM dithiothreitol DTT), and 20 mM Imidazole supplemented with cOmplete™ Protease Inhibitor Cocktail (Roche) and 25 U/mL Benzonase® Nuclease HC according to the manufacturer's instructions. Cells were lysed by passing through a Microfluidics M110Y Microfluidizer 3 times at 600 kPa followed by centrifugation at 38,000×g at 4° C. for 1 hour. The supernatant was loaded onto a pre-equilibrated HisTrap HP column and eluted in 20 mM Hepes-NaOH (pH 8.0), 50 mM NaCl, 10% glycerol, 2 mM DTT, and 400 mM Imidazole. The eluate was further purified by gel filtration on a Superdex S200 16/60 column and eluted with 20 mM Hepes-NaOH (pH 7.5), 50 mM NaCl, 10% Glycerol, 2 mM DTT. Fractions containing a trimeric complex of CDK7, cyclin H, and MAT1 in a 1:1:1 ratio were pooled and concentrated to 3 mg/mL in a 10 kDa MWCO concentrator, and diluted to a final concentration of 1.6 mg/mL in 11.1 mM Hepes-NaOH (pH 8.0), 27.8 mM NaCl, 1.1 mM DTT and 50% glycerol. […]
Absorbance Kinetic Assay (20 nM CDK7/Cyclin H/MAT-1 Complex)
CDK7 complex catalyzes the ATP-dependent phosphorylation of a peptide substrate CDK7/9-tide that is derived from RNA Pol II to produce phosphorylated peptide and ADP. The kinase reaction product ADP was converted to lactate and NAD^+ in the presence of phosphoenol pyruvate (PEP), NADH and coupling enzymes lactate dehydrogenase (LDH) and pyruvate kinase (PK). CDK7 complex catalytic activity was measured by following the absorbance intensity continuously at 340 nm that corresponds with the depletion of NADH.
Absorbance at 340 nm was followed kinetically at an interval of 2 minutes for 8 hours.
The assay was carried out with 100 μl reaction volume per well in a 384-well plate that was pre-spotted nanoliter volume of compounds by LabCyte Echo 555. Compound dilution plates were made by 2-fold (could vary upon necessity) dilution in DMSO for 11 concentrations plus a DMSO control of uninhibited reaction. 2× substrate and coupling reagent mixture was added to the assay plate followed by an addition of an equal volume of 40 nM CDK7/Cyclin H/MAT-1 complex. After mixing, assay plates were spun at 2000 rpm for 3 minutes and then transferred to the plate reader for data collection.
For reversible inhibitors, the absorbance reaction progress curves were linear. The steady-state rate was derived from the slope of the linear curves. The following equation is applied to determine percent inhibition.
[formula] • νo=max rate (uninhibited rate) • νi=inhibited rate
The IC50 value is calculated by the following equation:
[formula] where νo is the rate in the absence of inhibitor, νmin is the rate at highest inhibitor concentration, and h is the Hill coefficient. Flint Assay (5 nM CDK7/Cyclin H/MAT-1 Complex)

In test [2] the test system is RNA polymerase II Serine 5 phosphorylation (Rpb1 CTD), downstream substrate of CDK7. The test is described as follows: Imaging-based cellular RNA PolII Ser5 phosphorylation assay in A549 cells. Type of test: cell-based, human. The settings on record: Homo sapiens, A549, 3 h, challenged with compound for 3 hours, read-out: pRNA polII Ser5 (A549) pIC50 (converted). The source says:
Dosing curves were fitted using the following equation to obtain IC50: Y=Bottom+(Top−Bottom)/(1+10^((log IC50−X)*Hill slope)) where X=log10 of the compound concentration; top and bottom can be defined by PC and NC respectively. Imaging-Based Cellular RNA PolII Ser5 Phosphorylation Assay
To evaluate inhibition of CDK7 kinase activity, a 384-well automated imaging assay was used. This assay detects Serine 5 phosphorylation on a unique heptapeptide sequence in the C-terminal domain of Rpb1 subunit of RNA polymerase II, the downstream substrate of CDK7. This heptapeptide sequence is repeated up to 52 times in the CTD of Rpb1.
A549 adenocarcinoma human alveolar basal epithelial cells (ATCC, CCL-185), rabbit Phospho-Rpb1 CTD (Ser5) antibody (D9N51 (Cell Signaling Technology)), DMEM (Sigma), Fetal Bovine Serum (Biowest), L-glutamine (Sigma), Penicillin/Streptomycin (Life Technologies), Sodium Pyruvate (Sigma), Hepes (Sigma), poly-D-lysine coated μclear 384 black plates (Greiner), formaldehyde (PolySciences), D-PBS (Sigma), Methanol (Sigma), Alexa Fluor 488 goat anti rabbit IgG secondary antibody (Life Technologies), HCS CellMask™ Deep Red stain (Life Technologies), Hoechst 33258 (Invitrogen).
RNA Polymerase II Serine 5 phosphorylation was detected using a specific rabbit Phospho-Rpb1 CTD (Ser5) antibody. A549 adenocarcinoma human alveolar basal epithelial cells were seeded in 20 μl medium (DMEM supplemented with 1% Fetal Bovine Serum (heat inactivated 30′ 56° C.), 2 mM L-glutamine, 50 U/ml penicillin 50 μg/ml streptomycin, 1 mM sodium pyruvate and 50 mM hepes) at 1000 cells/well and cultured in poly-D-lysine coated μclear 384 black plates for 20 hours at 37° C. and 5% CO2.
After incubation cells were challenged with compound for 3 hours at 37° C. and 5% CO2. DMSO was used as high control and as low control 10 μM of LDC4297 reference compound was used. 40 nl of test compounds and controls were spotted in cell plates using Echo Liquid Handler (Echo 550, Labcyte). Incubation was followed by 20 minutes fixation with 20 μl 10% formaldehyde at room temperature. Medium/formaldehyde solution was removed, plates were washed 3 times with 30 μl D-PBS (w/o Ca^2+ and Ma^2+) and permeabilization was done by adding 20 μl ice cold methanol for 20 minutes. Cells were washed again 3 times with 30 μl D-PBS and 20 μl blocking buffer (25 ml fetal bovine serum in 500 ml D-PBS) was added for 1 hour.
After removing blocking buffer 20 μl 1/1000 primary antibody rabbit. Phospho-Rpb1 CTD (Ser5) antibody was added which binds to the phosphorylated Serine5 of the heptapeptide sequences in the CTD of Rpb1. Primary antibody was removed, and plates were washed 3 times with 30 μl D-PBS followed by addition of 20 μl 1/2000 Alexa Fluor 488 goat anti rabbit IgG secondary antibody for final detection of Phospho-Rpb1 CTD (Ser5) together with 1/5000 HCS CellMask™ Deep Red stain for membrane staining and 1/5000 Hoechst 33258 for nucleus staining. Last, plates were washed 2 times with 30 μl D-PBS and wells were filled with 40 μL D-PBS, plates were sealed (Thermowell sealing tape) and stored at 4° C. until reading. Plates were read with Opera Phenix (Perkin Elmer) with 10× air objective. Data were calculated and analyzed in Phaedra.
IC50 values were calculated using the following formula:
Average value of all HC's and all LC's are used for normalizations. % Effect=100−(sample−LC)/(HC−LC)×100% Control=(sample/HC)×100
A best-fit curve is fitted by a minimum sum of squares method to the plot of % Control vs. compound concentration. From this an IC50 value can be obtained. An estimate of the slope of the plot in terms of the Hill coefficient is also obtained.

Each structure is given as a SMILES string.

T1 sequence (P50613 whole entry, the tested form may be a part): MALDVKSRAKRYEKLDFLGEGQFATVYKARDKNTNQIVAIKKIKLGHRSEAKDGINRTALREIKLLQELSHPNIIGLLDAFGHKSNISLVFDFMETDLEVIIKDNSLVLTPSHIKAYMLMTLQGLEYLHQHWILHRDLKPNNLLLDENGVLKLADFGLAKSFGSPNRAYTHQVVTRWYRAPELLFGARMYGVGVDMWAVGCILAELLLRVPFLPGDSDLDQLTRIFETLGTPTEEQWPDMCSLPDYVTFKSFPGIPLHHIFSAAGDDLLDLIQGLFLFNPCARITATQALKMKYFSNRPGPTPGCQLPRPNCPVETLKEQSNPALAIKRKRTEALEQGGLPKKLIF
T1 sequence (P51946 whole entry partner, the tested form may be a part): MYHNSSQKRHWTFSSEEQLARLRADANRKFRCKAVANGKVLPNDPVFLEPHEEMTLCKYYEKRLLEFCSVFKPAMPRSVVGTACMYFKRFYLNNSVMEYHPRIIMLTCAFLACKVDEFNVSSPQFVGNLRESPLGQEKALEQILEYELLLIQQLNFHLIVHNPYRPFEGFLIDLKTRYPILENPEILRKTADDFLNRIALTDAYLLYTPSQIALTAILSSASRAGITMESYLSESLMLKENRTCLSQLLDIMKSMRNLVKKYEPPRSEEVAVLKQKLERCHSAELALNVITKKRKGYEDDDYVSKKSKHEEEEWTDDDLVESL
T1 sequence (P51948 whole entry partner, the tested form may be a part): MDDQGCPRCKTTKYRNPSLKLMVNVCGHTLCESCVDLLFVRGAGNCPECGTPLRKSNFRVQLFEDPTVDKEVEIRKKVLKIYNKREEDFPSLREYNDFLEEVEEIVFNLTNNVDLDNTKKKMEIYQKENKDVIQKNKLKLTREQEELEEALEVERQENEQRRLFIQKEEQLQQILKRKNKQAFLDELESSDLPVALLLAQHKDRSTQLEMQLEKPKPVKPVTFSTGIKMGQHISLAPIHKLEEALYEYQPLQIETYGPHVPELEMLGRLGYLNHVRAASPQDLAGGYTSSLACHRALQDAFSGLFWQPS

For `C[C@@H]1Cc2cnc(NC3CCOCC3)nc2CN1C(=O)[C@@H]1CC[C@H](N(C)C)CN1c1ccccc1` (mixture of isomers) [Compound 168], the “CDK7 (20 nM) pIC50” value in test [1] turned out to be 5.87. The IC50 in test [2] was more than 10000 nM. Consider `C[C@@H]1Cc2cnc(NC3CCOCC3)nc2CN1C(=O)[C@H]1CCN(C)C[C@@H]1C1CC1` (racemic) [Compound 111], for which the IC50 in test [1] is 214 nM; in test [2], 8320 nM. As to `C[C@@H]1Cc2cnc(N[C@@H]3CCN(C)C(=O)C3)nc2CN1C(=O)[C@H]1CCN(C)C[C@@H]1c1ccccc1` (relative stereo) [Compound 4], the IC50 was 35.5 nM in test [1] and approximately 8130 nM in test [2]. `Cc1cc([C@H]2CN(C)CC[C@@H]2C(=O)N2Cc3nc(NC4CCOCC4)ncc3C[C@H]2C)ccn1` (relative stereo) [Compound 103]: the IC50 in test [1] and in test [2] was more than 10000 nM throughout. Take `CO[C@H]1CC[C@H](Nc2ncc3c(n2)CN(C(=O)[C@H]2CCN(C)C[C@@H]2c2ccnc(C)c2)[C@H](C)C3)CC1` (relative stereo) [Compound 106]: the IC50 in test [1] was 6030 nM; in test [2] it was more than 10000 nM.

Consider `Cc1ccc([C@H]2CN(C)CC[C@@H]2C(=O)N2Cc3nc(NC4CCOCC4)ncc3C[C@H]2C)cn1` (relative stereo) [Compound 107], for which the IC50 in test [1] and in test [2] was more than 10000 nM throughout. Turning to `CO[C@H]1CC[C@H](Nc2ncc3c(n2)CN(C(=O)[C@@H]2CCN(C)C[C@H]2c2ccc(C)nc2)[C@H](C)C3)CC1` (relative stereo) [Compound 109], the IC50 in test [1] and in test [2] was more than 10000 nM in each case. With `C[C@@H]1Cc2cnc(NC3CCOCC3)nc2CN1C(=O)[C@@H]1CCN(C)C[C@H]1C1CC1` (relative stereo) [Compound 112], the IC50 in test [1] and in test [2] was more than 10000 nM in each case. Consider `C[C@@H]1Cc2cnc(NC3CCOCC3)nc2CN1C(=O)[C@H]1CCN(C)C[C@@H]1C1CC1` (relative stereo) [Compound 113], for which the IC50 in test [1] is 79.4 nM; in test [2], 1740 nM. In the same order, the values of `C[C@@H]1Cc2cnc(NC3CCOCC3)nc2CN1C(=O)[C@H]1CCN(C)C[C@@H]1c1ccc(F)c(Cl)c1` (relative stereo) [Compound 114] are 11 nM and 56.2 nM.

As to `C[C@@H]1Cc2cnc(NC3CCOCC3)nc2CN1C(=O)[C@H]1CCN(C)C[C@@H]1C1CCOCC1` (relative stereo) [Compound 115], the IC50 in test [1] is 120 nM; in test [2] it was 6310 nM. For the molecule `C[C@@H]1Cc2cnc(NC3CCOCC3)nc2CN1C(=O)[C@@H]1CCN(C)C[C@H]1c1ccncc1` (relative stereo) [Compound 116], the IC50 in test [1] was 37.2 nM; in test [2], 1410 nM.

Regarding `C[C@@H]1Cc2cnc(NC3CCOCC3)nc2CN1C(=O)[C@@H]1CCN(C)C[C@H]1c1cccnc1` (relative stereo) [Compound 117], the figures for the IC50 in test [1] and in test [2] were 16.2 nM and more than 10000 nM, respectively. In the same order, the values of `Cc1ccc([C@H]2CN(C)CC[C@@H]2C(=O)N2Cc3nc(NC4CCOCC4)ncc3C[C@H]2C)cc1` (relative stereo) [Compound 118] are 11.7 nM and 269 nM. The matching figures for `C[C@@H]1Cc2cnc(NC3CCOCC3)nc2CN1C(=O)[C@H]1CCN(C)C[C@@H]1c1cccc(Cl)c1` (relative stereo) [Compound 119]: 72.4 nM and approximately 39.8 nM. In the same order, the values of `C[C@@H]1Cc2cnc(NC3CCOCC3)nc2CN1C(=O)[C@H]1CCN(C)C[C@@H]1c1ccc(F)cc1` (relative stereo) [Compound 120] are 12 nM and approximately 67.6 nM. As to `Cc1cccc([C@@H]2CN(C)CC[C@H]2C(=O)N2Cc3nc(Nc4cnn(C)c4)ncc3C[C@H]2C)c1` (relative stereo) [Compound 125], the results for the IC50 in test [1] and in test [2] were 339 nM and 794 nM, respectively. In the same order, the values of `Cc1cccc([C@@H]2CN(C)CC[C@H]2C(=O)N2Cc3nc(NC4CCOCC4)ncc3C[C@H]2C)c1` (relative stereo) [Compound 137] are 457 nM and 955 nM. As for `C[C@@H]1Cc2cnc(NCc3ccccc3)nc2CN1C(=O)[C@H]1CCN(C)C[C@@H]1C(F)(F)F` (relative stereo) [Compound 142], the IC50 was 2950 nM in test [1] and 4170 nM in test [2].

On to `C[C@@H]1Cc2cnc(NC3CCOCC3)nc2CN1C(=O)[C@H]1CN(C)C[C@@H]1c1ccccc1` (relative stereo) [Compound 169a], for which the values for the IC50 in test [1] and in test [2] were 468 nM and more than 10000 nM, respectively. On to `C[C@@H]1C[C@H](C(=O)N2Cc3nc(NC4CCOCC4)ncc3C[C@H]2C)[C@@H](c2ccccc2)CN1C` (relative stereo) [Compound 170a], for which the IC50 in test [1] is 794 nM; in test [2], more than 10000 nM. For `CC(C)N1CC[C@H](C(=O)N2Cc3nc(NC4CCOCC4)ncc3C[C@H]2C)[C@@H](c2ccc(Cl)c(F)c2)C1` (single isomer, unassigned) [Compound 162], in test [1], the “CDK7 (20 nM) pIC50” value was 6.95.
